According to patent US8609361B2, “Real time electrophysiological testing of agents of interest for treatment of amyloid-type diseases” (Universidad de Concepcion, priority 2007, dated 2013):

Experiments:
[1] = system: plasma membrane of hippocampal neurons; assay: cell-attached to perforated patch-clamp recording with the agent in the glass pipette; assay type: cell-based, mice
Procedure: In absence of Aβ or gramicidin, cell attached recordings are stable for more than 60 min.
Control is the charge in cell-attached configuration and reflects the recording of the glass pipette properties partially compensated to visualize part of the transient. Negative pressure reflects the charge obtained with a routine whole-cell configuration. Gramicidin and amphotericin are antibiotics routinely used to generate perforates. Data are ±S.E. average (n=6; different experiments).
The experimental evidence of the invention allows establishing that conductance changes may be the result of the forming of a cationic-type pore, very similar to that generating gramicidin. […] Basically, this invention procedure is formed by two stages: • b) Exposing a small area or patch of plasma membrane, in a preferable embodiment said membranes are neuron membranes, to peptide aggregates under study and/or to active ingredients, and/or compounds of interest. • c) Determining, measuring, and quantifying electric parameters of membranes exposed to these aggregates; in a preferable embodiment, the parameter is conductance (inverse of electrical resistance resulting from resistance range and the glass pipette potential).
The method described in this invention uses a variation of the technique known as patch cell-attached to study the Aβ peptide effects. In this invention embodiment, records very stable in time are obtained and maintained for more than 5 minutes, preferably for more than 15 minutes, and more preferably for more than 30 minutes. At the same time, this embodiment provides an intrinsic noise level under 5 pA, preferably under 3 pA, and more preferably under 1 pA, which may be due to the registry being obtained from a small cell area that normally contains very few ionic channels. […] However, the most important characteristics in this event is the evidence of the fast capacitative resistance component, which reflects formation of a perforated form that supports the conclusion that pores are generated in the membrane (see FIGS. 1 and 2).
Animals are treated and handled according to the NIH recommendations. 18-day pregnant mice (C57BL7J6) are anesthetized with ether and sacrificed through cervical dislocation. Embryo are quickly removed and beheaded with sterile material. Brains are removed and kept in cold Hank medium.
The midbrain is separated in order to expose the hippocampus area, which is dissected from the brain and mechanically dispersed using trypsin, collagenase, and DNAsa III. Neurons are placed (“planted”) in 35 mm dishes covered with poly-L-lisine at a density of 350000 neurons per ml.
Neurons are left to grow in vitro during 12 days, and then recorded using electro-physiology. The means of culture is 80% MEM, 2 mM glutamine, and 10% bovine fetal serum. The means are changed every three days. Every reagent used is dissolved in PBS, which is used as control.
Peptide aggregates are diluted to working concentration and were made at concentrations from 0.01 μM to 50 μM, preferably between 0.03 and 20, more preferably 0.05 and 10 μM. This aggregate is diluted in an internal solution (called so because it artificially imitates intra-cell fluid) mainly formed by KCl, BAPTA, calcium, and ATP, as previously described. The aggregate is diluted in this solution, which is loaded into the pipette to be used for Patch-Clamp. This solution is taken into a tuberculin syringe, from which the needle has been removed, and a small capillary-HPLC is added. With this modified syringe, the internal solution volume is taken with no Aβ aggregates as control. It may also be used with the aggregate and/or other molecules of biologic interest in the event evaluations and determining the said molecules' pharmacologic activities is required.
Using the capillary-HPLC in the syringe, the internal solution is introduced into the glass pipette, slowly removing it as the pipette becomes full in order to reduce bubbles. […]

AMPA and NMDA receptors = conditions: reported in the art; cited from earlier work
neurons = assay: whole-cell patch clamp, membrane potential; assay type: cell-based, mice; conditions: low concentrations (preferably less than 1 μM, more preferably 0.5 μM Aβ)
[2] = Aβ peptide aggregation in solution followed by turbidity (optical density); assay type: physicochemical; conditions: about 100 μM peptide in PBS pH 7.4, stirring about 600 rpm, about 37° C., after 120 minutes
Procedure: FIG. 2A is a graph indicating the Aβ peptide aggregation structure progress in solution. […] The solution absorbency measurement is observed as a change in optical densities (D.O.), which reflects formation of complex structures, amyloid aggregates. Images B-D correspond to ultra micro photographs obtained with an electronic microscope. The recognition of different structures formed during the aggregation process is possible. Aggregates obtained at 120 min and fibers obtained at 5 days of aggregation are readily noticed.
In order to generate the working solution, these portions are defrosted under a laminar flow bell and diluted in sterile PBS at pH 7.4. 700 μl PBS are added to the 25 μl of each peptide portion, obtaining a final work volume of 725 μl, with peptide at an approximate concentration of 100 μM. This peptide solution is defined as “Soluble Peptide” and it is mainly formed by Aβ peptide monomers. This soluble peptide is induced to aggregation by stirring at approximately 600 rpm at temperature around 37° C. During this process, the solution optical density is determined at 405 nm every 15 minutes for a total time of 120 minutes. […] This solution is called “Aggregate Peptide”, and electronic microscope inspection has determined that it corresponds to a heterogeneous structure population, among which amorphous aggregate shapes, 100 nm protofibril, and short fibers are noted.

gramicidin
development of perforation ([1]; 50 μM in the glass pipette, FIG. 1B): typical perforation

N#Cc1cc2[nH]c(=O)c(=O)[nH]c2cc1[N+](=O)[O-] [CNQX]
inhibition of peptide effects on calcium levels (AMPA and NMDA receptors): inhibited

Aβ: Synthetic peptide Aβ1-40 (TOCRIS or Sigma), human sequence of β-amyloid peptide, aggregated by stirring at 37° C.
conversion of the cell-attached recording into a perforated recording (increased capacitative peak and late conductance) ([1]; 500 nM in the glass pipette solution, FIG. 1A): spontaneously convert the recording into a perforated variation of the technique
charge transferred by the cellular membrane during a 10 mV pulse ([1]; FIG. 3, n=6): form perforations in the membrane
input current following the high-resistance seal formation ([1]; in the presence of Aβ): −40 to −70 pA
current range ([1]; low-concentration peptide, few pores in the cell): ≤ 50 pA
membrane de-polarization ([1]; measurements and recordings of the invention method): has not been detected
changes in membrane potential (neurons): have not shown significant changes in membrane potential
solution optical density at 405 nm [2]: 0.2-0.3
